Our source for the drug sensitivity score values is the supplement of paper PMC7108870.

The subject of test [1] is HEK293sieSTAT3(Y640F). Nature of the test: drug sensitivity score (DSS), cytotoxicity CellTox Green (DSS (dimensionless)); higher = more cytotoxic; extreme values may be limits of the assay. The note with it: 72 h; STAT3 variant: Y640F (constitutively active). An outline of the steps: (§1)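 HEK293 cells carrying a STAT3-dependent luciferase reporter and overexpressing wild-type or mutant STAT3 (20 μl at 100,000 cells/ml) were added to compounds acoustically pre-plated at 5 concentrations in 10-fold dilutions in 384-well plates. After 72 hours at 37°C and 5% CO2, CellTox Green fluorescence (485/520 nm) and then CellTiter-Glo luminescence were read on a PHERAstar FS. Values were normalised to negative and positive control wells, and a drug sensitivity score based on dose-response curve area was computed in Breeze. Each value comes from one representative of two experiments.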

In test [2] the test system is HEK293sieSTAT3(wt). The description is as above. The conditions noted are these: 72 h; STAT3 variant: wild type. The method in brief:
as §1

Test [3] concerns HEK293sieSTAT3(Y640F). The experiment in a line: drug sensitivity score (DSS), viability CellTiter-Glo (DSS (dimensionless)); higher = more growth inhibition; extreme values may be limits of the assay. The conditions noted are these: 72 h; STAT3 variant: Y640F (constitutively active). The method in brief: as §1
For test [4], the system named is HEK293sieSTAT3(wt). The test is described as above. The note with it: 72 h; STAT3 variant: wild type. An outline of the steps:
as §1

As for `CCCOc1ccn2c(C(C)=O)cc(-c3ccccc3S(C)(=O)=O)c2c1` [GSK2801] (top concentration tested 10000 nM), the drug sensitivity score with HEK293sieSTAT3(Y640F) [1], with HEK293sieSTAT3(wt) [2], in the test with HEK293sieSTAT3(Y640F) [3] and in the test with HEK293sieSTAT3(wt) [4] was 0 each time.
With `O=C(/C=C\n1cnc(-c2cc(C(F)(F)F)cc(C(F)(F)F)c2)n1)NNc1ccccn1` [Verdinexor] (top concentration tested 1000 nM), the drug sensitivity score with HEK293sieSTAT3(Y640F) [1] came out at 5.2; in the test with HEK293sieSTAT3(wt) [2], 10.5; in the test with HEK293sieSTAT3(Y640F) [3], 15.5; in the test on HEK293sieSTAT3(wt) [4], 17.4.
In the same order, the values of `FC(F)(F)c1ccc(/C=C/c2nc(COc3ccc(CCCCn4ccnn4)cc3)co2)cc1` [Mubritinib] (top concentration tested 1000 nM) are 0, 0.57, 8.41 and 5.94.
Take `C=CC(=O)N1CCC[C@@H](n2nc(-c3ccc(Oc4ccccc4)cc3)c3c(N)ncnc32)C1` [Ibrutinib] (top concentration tested 1000 nM): the drug sensitivity score in the test on HEK293sieSTAT3(Y640F) [1] came out at 0.94; with HEK293sieSTAT3(wt) [2] it was 3.43; in the test with HEK293sieSTAT3(Y640F) [3], 0.59; in the test on HEK293sieSTAT3(wt) [4], 2.79.
In the same order, the values of `Cc1cc2c(C(=O)NC[C@H](C)c3ccccc3)c(O)c(O)cc2c(O)c1-c1c(C)cc2c(C(=O)NC[C@H](C)c3ccccc3)c(O)c(O)cc2c1O` [Sabutoclax] (top concentration tested 25000 nM) are 12.2, 9.82, 26.4 and 27.8.
For the molecule `Oc1nc(-c2ccc(C(F)(F)F)cc2)nc2c1CSCC2` [XAV-939] (top concentration tested 10000 nM), the drug sensitivity score is 0 with HEK293sieSTAT3(Y640F) [1], 0 with HEK293sieSTAT3(wt) [2], 0.17 in the test on HEK293sieSTAT3(Y640F) [3] and 1.46 with HEK293sieSTAT3(wt) [4].
For the molecule `O=C(O)C(=O)O.[NH-][C@@H]1CCCC[C@H]1[NH-].[Pt+2]` [Oxaliplatin] (top concentration tested 100000 nM), the drug sensitivity score in the test with HEK293sieSTAT3(Y640F) [1] was determined as 5.26; with HEK293sieSTAT3(wt) [2], 12; in the test with HEK293sieSTAT3(Y640F) [3], 16.9; with HEK293sieSTAT3(wt) [4], 19.3.
In the same order, the values of `Cc1ccc2nc(CN(CCN(Cc3nc4ccc(C)cc4[nH]3)Cc3nc4ccc(C)cc4[nH]3)Cc3nc4ccc(C)cc4[nH]3)[nH]c2c1` (top concentration tested 50000 nM) are 3.51, 5.64, 4.22 and 3.52.
As to `O=C(c1cccc(Cl)c1F)N1CCN(Cc2cccc(Nc3nccs3)n2)CC1` [MK-8745] (top concentration tested 2500 nM), the drug sensitivity score in the test with HEK293sieSTAT3(Y640F) [1] turned out to be 0; in the test on HEK293sieSTAT3(wt) [2], 1.16; in the test on HEK293sieSTAT3(Y640F) [3] it was 0.11; in the test with HEK293sieSTAT3(wt) [4], 3.99.
The matching figures for `Nc1nc2[nH]cc(CCc3ccc(C(=O)N[C@@H](CCC(=O)O)C(=O)O)cc3)c2c(=O)[nH]1` [Pemetrexed] (top concentration tested 10000 nM): 0, 2.93, 12.9 and 13.3.
The matching figures for `Cc1ccc(NC(=O)c2ccc(CN3CCN(C)CC3)cc2)cc1Nc1nc(-c2cccnc2)cs1` [Masitinib] (top concentration tested 10000 nM): 0.7, 5.99, 4.59 and 7.57.
`Cc1cc(C(=O)NOCCO)c(Nc2ccc(I)cc2F)n(C)c1=O` [AZD-8330] (top concentration tested 10000 nM): the drug sensitivity score in the test on HEK293sieSTAT3(Y640F) [1] stood at 0; in the test on HEK293sieSTAT3(wt) [2] it was 0; with HEK293sieSTAT3(Y640F) [3], 7.16; in the test on HEK293sieSTAT3(wt) [4], 0.01.
Take `Nc1nc(F)nc2c1ncn2[C@@H]1O[C@H](CO)[C@@H](O)[C@@H]1O` [Fludarabine] (top concentration tested 10000 nM): the drug sensitivity score in the test on HEK293sieSTAT3(Y640F) [1] was found to be 0; with HEK293sieSTAT3(wt) [2], 0; in the test on HEK293sieSTAT3(Y640F) [3] it was 0.19; with HEK293sieSTAT3(wt) [4] it was 3.07.
`COc1nc(N)nc2c1ncn2[C@@H]1O[C@H](CO)[C@@H](O)[C@@H]1O` [Nelarabine] (top concentration tested 10000 nM): the drug sensitivity score was found to be 0 in the test on HEK293sieSTAT3(Y640F) [1], 0 in the test on HEK293sieSTAT3(wt) [2], 0.7 in the test on HEK293sieSTAT3(Y640F) [3] and 1.07 in the test with HEK293sieSTAT3(wt) [4].
Consider `O=C(/C=C\n1cnc(-c2cc(C(F)(F)F)cc(C(F)(F)F)c2)n1)NNc1cnccn1` [Selinexor] (top concentration tested 10000 nM), for which the drug sensitivity score with HEK293sieSTAT3(Y640F) [1] turned out to be 14.5; with HEK293sieSTAT3(wt) [2] it was 26.4; in the test with HEK293sieSTAT3(Y640F) [3], 26.9; in the test on HEK293sieSTAT3(wt) [4], 30.8.
In the same order, the values of `NC(=O)NO` [Hydroxyurea] (top concentration tested 100000 nM) are 0, 0, 4.19 and 1.75.
